Measured values from patent publication US20230257385A1, “SALT AND SOLID FORMS OF TABERNANTHALOG” (priority 2021, published 2023).

Test: Heat-up/cool-down crystallisation screen of sorbate salt (Example 10, Experiments 5, 8)
Assay type: physicochemical
Settings: Experiment 5; for Observations (t = 1 @ T = 20° C.): Tabernanthalog sorbate salt (Form A) crystallised from binary solvents, solvent A 3.0 vol plus solvent B, one pair per sample; for XRPD (oven dried @ 40° C., 20 h) / XRPD (centrifuged, wet): heat-up/cool-down crystallisation from binary solvents; for XRPD (centrifuged, wet): wet pellet
Procedure: The relevant solvent (0.225 ml, 3.0 vol) was added to the appropriate vial and the suspensions were stirred and warmed to temperature. If dissolution was not observed, further solvent was added until the solute dissolved, or aliquots of a secondary co-solvent were added to complete dissolution. Once dissolved, the solutions were left to cool down and stand undisturbed under sub-ambient conditions for several days. After crystallisation was judged complete, the products were isolated by centrifugation and the pellets were dried at 40° C. under reduced pressure. Products from the crystallisation (wet and dry) were initially analysed by XRPD (9-minute method), further analyses of certain products were performed by ^1H NMR, DSC and TGA, if the diffraction pattern indicated differences.

| SMILES | Observations (t = 1 @ T = 20° C.) | XRPD (oven dried @ 40° C., 20 h) | XRPD (centrifuged, wet) |
| --- | --- | --- | --- |
| CC=CC=CC(=O)O.COc1ccc2c3c([nH]c2c1)CCN(C)CC3 [Experiment 5-Sample A] | Partial | Form A | Form A |
| CC=CC=CC(=O)O.COc1ccc2c3c([nH]c2c1)CCN(C)CC3 [Experiment 5-Sample B] | Solid | Form A | Form A |
| C/C=C/C=C/C(=O)O.COc1ccc2c3c([nH]c2c1)CCN(C)CC3 [Experiment 5-Sample C] | Solid | Form A | Form A |
| C/C=C/C=C/C(=O)O.COc1ccc2c3c([nH]c2c1)CCN(C)CC3 [Experiment 5-Sample D] | Liquid | Form A | Form A |
| C/C=C/C=C/C(=O)O.COc1ccc2c3c([nH]c2c1)CCN(C)CC3 [Experiment 5-Sample E] | Partial | Form A | Form A |
| C/C=C/C=C/C(=O)O.COc1ccc2c3c([nH]c2c1)CCN(C)CC3 [Experiment 5-Sample F] | Partial | Form A | Form A |
| C/C=C/C=C/C(=O)O.COc1ccc2c3c([nH]c2c1)CCN(C)CC3 [Experiment 5-Sample G] | Partial | Form A | Pattern #6 |
| CC=CC=CC(=O)O.COc1ccc2c3c([nH]c2c1)CCN(C)CC3 [Experiment 5-Sample H] | Partial | Form A | Form A |
| C/C=C/C=C/C(=O)O.COc1ccc2c3c([nH]c2c1)CCN(C)CC3 [Experiment 5-Sample I] | Liquid | Form A | Form A |
| C/C=C/C=C/C(=O)O.COc1ccc2c3c([nH]c2c1)CCN(C)CC3 [Experiment 5-Sample J] | Partial | Form A | Form A |
| CC=CC=CC(=O)O.COc1ccc2c3c([nH]c2c1)CCN(C)CC3 [Experiment 5-Sample K] | Partial | Form A | Form A |
